US20240156931A1, “COLLECTION AND USES OF TISSUE RESIDENT INTERSTITIAL EXTRACELLULAR VESICLES” (priority 2022, published 2024)
Entries after “also recorded” stand apart in the source; their conditions may differ.

Legend:
[1] = test system: eGFP-4T1 cells; experiment: Mitophagy induction / mitochondrial EV fluorescent labelling (CCCP perturbation); format: cell-based, murine
Source text: To further verify that PINK1-associated EVs contained mitochondrial components via a orthogonal methods, we performed a functional perturbation in vitro to induce the cellular release of mitophagy-associated EVs. We treated sub-confluent eGFP-4T1 cells with a mitochondrial depolarization protonophore carbonyl cyanide m-chlorophenyl hydrazone (CCCP) (Villa et al., 2017) and added a permanent fluorescent label for active mitochondrial membranes with MitoTracker Deep Red (MTDR) (Chazotte, 2011). After 48 h, the cells reached 70% confluency and were harvested by differential ultracentrifugation.
Two 4T1-eGFP cell cultures were plated at 10^6 cells/ml. Untreated cells were left to grow for 5 days. Treated cells were stimulated with 10 nM of carbonyl cyanide 3-chlorophenylhydrazone (CCCP) (Sigma) and left to grow for 5 days. The supernatants were collected and EVs fractions were isolated by differential ultracentrifugation. The resulting 100K EVs were probed for anti-ARIH1 (Santa Cruz) by Western blot.
Two 4T1-eGFP-Puro cell cultures were plated at 10^6 cells/ml. Untreated cells were left to grow for 48 h. Treated cells were stimulated with 10 nM and 10 μM of CCCP and left to grow for 48 h. At 48 h, 50 nM of MitoTracker Deep Red (MTDR) (Thermo Fisher) was added to the media and left to sit overnight in the cell incubator. The supernatants were collected and EVs were isolated by differential ultracentrifugation. EVs subpopulations were plated at 30 μl and scanned for peak emission fluorescent intensity fluorescence at […] (absorbance/emission) for GFP and 635/675 nm (absorbance/emission) for MTDR on a Tecan safire2 plate reader.

[2] = test system: irradiated tumor; settings: mice; cited from earlier work
[3] = test system: Ovarian Cancer tumor cells; experiment: EVs released by ovarian cancer cells undergoing cisplatin treatment (Western blot, RPPA); format: cell-based
Method: A) Ovarian Cancer tumor cells are treated with pulses of cisplatin, a common ovarian cancer therapeutic. EVs released by the cancer cells undergoing cisplatin treatment are isolated by differential ultracentrifugation and analyzed via Western Blot, mass spectrometry, and reverse phase protein array in order to determine potential pathways and markers that are indicative of cancer resistance. […] Additionally, the subpopulations are present with typical EV related tetraspanin markers.
In an embodiment, RPPA assays previously used for tissue lysates can be adapted for use with EV subpopulations.

N#CC(C#N)=NNc1cccc(Cl)c1 [CCCP, carbonyl cyanide m-chlorophenyl hydrazone]
MitoTracker Deep Red (MTDR) in 100K EVs ([1]; MTDR fluorescence normalized to GFP by EV subpopulation): increased release of 100K EVs containing active mitochondrial molecules; also recorded: increasing levels
ARIH1 presence in the 100K EVs ([1]; compared to no treatment, Western blot): induced ARIH1 presence
release of CD81+/PINK1+ 100K EVs ([1]; increasing CCCP up to 10 μM (cytotoxic level), 48 h, Western blot): release of increased Parkin-independent mitophagy-containing 100K EVs; also recorded: increased release of CD81+/PINK1+ 100K EVs in a dose dependent manner; also recorded: increased export of PINK1 and MitoTracker

CCN(CC)CCCC(C)Nc1ccnc2cc(Cl)ccc12 (centres unmarked) [chloroquine]
response to radiation therapy [2]: improves response

N.N.[Cl][Pt][Cl] [cisplatin]
RPPA ratio pre to post treatment, EGFR (pY1068) and Bax pathways ([3]; 2K EV population): greatly increased
RPPA ratio pre to post treatment, Akt ([3]; 10K EV population): 11 fold
RPPA pathways altered after treatment ([3]; 100K EV population): few pathways were altered
LC3-I/II (autophagy) and PD-L1 in EV subpopulations, Western blot ([3]; post-treatment EVs compared to pre-treatment): upregulating
